Source: US20090197856A1, “ANTIVIRAL COMPOUNDS” (Genelabs Technologies, Inc., priority 2007, published 2009)

Target: T1, HCV-NS5b (Hepatitis C virus genotype 1b, UniProt Q9WMX2)
T1 construct: (His)6 (C); made in house; host or cells: XL-1 cells (E. coli), IPTG-inducible plasmid
Assay: HCV-NS5b enzyme assay using homopolymer substrate
Assay type: biochemical
Conditions: not given
Description: The coding sequence of NS5b protein was cloned by PCR from pFKI389luc/NS3-3′/ET as described by Lohmann, V., et al. (1999) Science 285, 110-113 using the primers shown on page 266 of WO 2005/012288
The cloned fragment is missing the C terminus 21 amino acid residues. The cloned fragment was inserted into an IPTG-inducible (isopropyl-β-D-thiogalactopyranoside) expression plasmid that provides an epitope tag (His)6 at the carboxy terminus of the protein.
The recombinant enzyme was expressed in XL-1 cells and after induction of expression, the protein was purified using affinity chromatography on a nickel-NTA (nitrilotriacetic acid) column. Storage condition was 10 mM Tris-HCl pH 7.5, 50 mM NaCl, 0.1 mM EDTA (ethylenediaminetetraacetic acid), 1 mM DTT (dithiothreotol), 20% glycerol at −20° C.
The polymerase activity was assayed by measuring incorporation of radiolabeled UTP into a RNA product using a biotinylated, homopolymeric template. The template was formed by annealing adenosine homopolymer to uridine 20-mer capped with a 5′-biotin group (biotin-U^20) in the ratio of 1:4. Typically, the assay mixture (50 μL) contained 25 mM Tris-HCl (pH 7.5), 40 mM KCl, 0.3 mM MgCl2, 0.05 mM EDTA, 0.2 unit/μL Superase RNAse Inhibitor, 5 mM DTT, 30 μM UTP (Uridine triphosphate), including [^3H]-UTP (uridine triphosphate) at 0.4 μCi/μL with final concentration of 1 μM, and 50 nM of homopolymeric template. Test compounds were initially dissolved in 100% DMSO and further diluted in aqueous buffer containing 5% DMSO. Typically, compounds were tested at concentrations between 2 nM and 50 μM. Reactions were started with addition of enzyme and allowed to continue at 30° C. for 90 minutes. Reactions were quenched with 8 μL of 100 mM EDTA and reaction mixtures (30 μL) were transferred to streptavidin-coated scintillation proximity microtiter plates (FlashPlates) and incubated at room temperature overnight. Incorporation of radioactivity was determined by scintillation counting.
Inhibitor IC50 values were determined by adding test compound as ten point, two-fold serial dilutions in 100% DMSO with a final reaction concentration of 5%. IC50 was calculated by plotting the % inhibition against compound concentration and fitting the data to a constrained four parameter sigmoidal curve, equivalent to the “four parameter logistic equation”:
Where Bottom is the minimum Y value, Top is the maximum Y value, and Hillslope is the slope of the linear portion of the semi-log curve. Top and Bottom were constrained to values of 0% and 100%, respectively. These analyses were performed using Graphpad Prism v.4.0 (Graphpad Software, Inc.) in conjunction with DS Accord for EXCEL 6.0 (Accelrys, Microsoft Corp.).
The table below lists the IC50 values of compounds determined using the homopolymer substrates.

SMILES | IC50 [nM]
CCN(CC)CCC(=O)c1cn2c3c(cccc13)-c1c(C3CCCCC3)c3ccc(C(=O)O)cc3n1CCC2 [Compound 429] | 99
CC(C)NCCC(=O)c1cn2c3c(cccc13)-c1c(C3CCCCC3)c3ccc(C(=O)O)cc3n1CCC2 [Compound 430] | 73
O=C(O)c1ccc2c(C3CCCCC3)c3n(c2c1)CCCn1cc(C(=O)N2CCCC2)c2cccc-3c21 [Compound 437] | 151
CCN(CC)C(=O)c1cn2c3c(cccc13)-c1c(C3CCCCC3)c3ccc(C(=O)O)cc3n1CCC2 [Compound 438] | 69
CN1CCN(C(=O)c2cn3c4c(cccc24)-c2c(C4CCCCC4)c4ccc(C(=O)O)cc4n2CCC3)CC1 [Compound 439] | 182
CN(C)CCNC(=O)c1cn2c3c(cccc13)-c1c(C3CCCCC3)c3ccc(C(=O)O)cc3n1CCC2 [Compound 440] | 107
CC(C)N(C(=O)c1cn2c3c(cccc13)-c1c(C3CCCCC3)c3ccc(C(=O)O)cc3n1CCC2)C(C)C [Compound 441] | 271
COCCNC(=O)c1cn2c3c(cccc13)-c1c(C3CCCCC3)c3ccc(C(=O)O)cc3n1CCC2 [Compound 442] | 123
CC(C)NC(=O)c1cn2c3c(cccc13)-c1c(C3CCCCC3)c3ccc(C(=O)O)cc3n1CCC2 [Compound 443] | 121
CCN(CC)C(=O)C(=O)c1cn2c3c(cccc13)-c1c(C3CCCCC3)c3ccc(C(=O)O)cc3n1CCC2 [Compound 453] | 212
O=C(O)c1ccc2c(C3CCCCC3)c3n(c2c1)CCCn1cc(C(=O)CN2CCCCC2)c2cccc-3c21 [Compound 454] | 348

Same assay, conditions: homopolymer substrate, [3H]-UTP incorporation, 30° C., 90 minutes; read-out: IC50

SMILES | IC50 [nM]
NC1CCN2CCn3c(c(C4CCCCC4)c4ccc(C(=O)O)cc43)-c3cc(F)cc1c32 (stereo not shown) [Compound 447] | 59
O=C(O)c1ccc2c(C3CCCCC3)c3n(c2c1)CCCn1cc(CN2CCCCC2)c2c(Cl)ccc-3c21 [Compound 457] | 195
CN1CCN(Cc2cn3c4c(ccc(Cl)c24)-c2c(C4CCCCC4)c4ccc(C(=O)O)cc4n2CCC3)CC1 [Compound 458] | 196
COc1ccc2c3c1c(CN1CCCCC1)cn3CCCn1c-2c(C2CCCCC2)c2ccc(C(=O)O)cc21 [Compound 461] | 368
O=C(O)c1ccc2c(C3CCCCC3)c3n(c2c1)CCCn1cc(CN2CCCCC2)c2ccnc-3c21 [Compound 464] | 960
O=C(O)c1ccc2c(C3CCCCC3)c3n(c2c1)CCCn1cc(CN2CCCCC2)c2cc(F)cc-3c21 [Compound 467] | 95
O=C(O)c1ccc2c(C3CCCCC3)c3n(c2c1)CCn1cc(CN2CCCCC2)c2c(F)ccc-3c21 [Compound 468] | 84
COc1ccc2c3c1c(CN1CCN(C)CC1)cn3CCCn1c-2c(C2CCCCC2)c2ccc(C(=O)O)cc21 [Compound 469] | 662
O=C(O)c1ccc2c(C3CCCCC3)c3n(c2c1)CCN1CCC(NC2CCCCC2)c2cccc-3c21 (stereo not shown) [compound 281] | 61

The remaining lines, values ahead:

IC50 [nM] | SMILES
121 | O=C(O)c1ccc2c(C3CCCCC3)c3n(c2c1)CC1(CC1)Cn1cc(CN2CCCCC2)c2cccc-3c21 [Compound 427]
166 | CCN(C)Cc1cn2c3c(cccc13)-c1c(C3CCCCC3)c3ccc(C(=O)O)cc3n1CC1(CC1)C2 [Compound 428]
201 | O=C(O)c1ccc2c(C3CCCCC3)c3n(c2c1)CCCn1cc(/C(Cl)=C/CN2CCCCC2)c2cccc-3c21 [Compound 431]
324 | CCN(CC)CC#Cc1cn2c3c(cccc13)-c1c(C3CCCCC3)c3ccc(C(=O)O)cc3n1CCC2 [Compound 432]
181 | CC(C)NCCCc1cn2c3c(cccc13)-c1c(C3CCCCC3)c3ccc(C(=O)O)cc3n1CCC2 [Compound 433]
172 | O=C(O)c1ccc2c(C3CCCCC3)c3n(c2c1)CCCn1cc(CCCN2CCCCC2)c2cccc-3c21 [Compound 434]
171 | O=C(O)c1ccc2c(C3CCCCC3)c3n(c2c1)CCCn1cc(CCCN2CCCC2)c2cccc-3c21 [Compound 435]
333 | CCN(CC)CCCc1cn2c3c(cccc13)-c1c(C3CCCCC3)c3ccc(C(=O)O)cc3n1CCC2 [Compound 436]
215 | N#Cc1cn2c3c(cccc13)-c1c(C3CCCCC3)c3ccc(C(=O)O)cc3n1CCC2 [Compound 444]
103 | O=C(O)c1ccc2c(C3CCCCC3)c3n(c2c1)CCCn1cc(-c2nnn[nH]2)c2cccc-3c21 [Compound 445]
169 | N=C(N)c1cn2c3c(cccc13)-c1c(C3CCCCC3)c3ccc(C(=O)O)cc3n1CCC2 [Compound 446]
253 | CN1CCN(CCc2cn3c4c(cccc24)-c2c(C4CCCCC4)c4ccc(C(=O)O)cc4n2CCC3)CC1 [Compound 449]
325 | CCN(CC)CCc1cn2c3c(cccc13)-c1c(C3CCCCC3)c3ccc(C(=O)O)cc3n1CCC2 [Compound 452]
160 | O=C(O)c1ccc2c(C3CCCCC3)c3n(c2c1)CCCn1cc(Cl)c2cccc-3c21 [Compound 455]
125 | O=C(O)c1ccc2c(C3CCCCC3)c3n(c2c1)CCCn1ccc2c(Cl)ccc-3c21 [Compound 456]
160 | CCN(C)Cc1cn2c3c(ccc(Cl)c13)-c1c(C3CCCCC3)c3ccc(C(=O)O)cc3n1CCC2 [Compound 459]
211 | COc1ccc2c3c1ccn3CCCn1c-2c(C2CCCCC2)c2ccc(C(=O)O)cc21 [Compound 460]
414 | CCN(C)Cc1cn2c3c(ccc(OC)c13)-c1c(C3CCCCC3)c3ccc(C(=O)O)cc3n1CCC2 [Compound 462]
2060 | COc1ccc2c3c1c(CNC(C)C)cn3CCCn1c-2c(C2CCCCC2)c2ccc(C(=O)O)cc21 [Compound 463]
1720 | CCN(CC)Cc1cn2c3c(nccc13)-c1c(C3CCCCC3)c3ccc(C(=O)O)cc3n1CCC2 [Compound 465]
85 | O=C(O)c1ccc2c(C3CCCCC3)c3n(c2c1)CCCn1ccc2cc(F)cc-3c21 [Compound 466]

Target: T2, NS5B (Hepatitis C virus genotype 1b, UniProt Q9WMX2)
T2 construct: 3 nM NS5B, 20 nM polyC RNA template
Assay: Polymerase assay, incorporation of radiolabeled GTP with biotinylated oligoG13 primer and polycytidylic acid RNA template
Assay type: biochemical
Conditions: polyC RNA template, biotin-oligoG13 primer, tritiated GTP, 3 nM NS5B, 30° C., 2 hours
Procedure: The polymerase activity was also assayed by measuring incorporation of radiolabeled GTP into an RNA product using a biotinylated oligoG13 primer with a polycytidylic acid RNA template. Typically, the assay mixture (40 μL) contains 50 mM HEPES (pH 7.3), 2.5 mM magnesium acetate, 2 mM sodium chloride, 37.5 mM potassium acetate, 5 mM DTT, 0.4 U/mL RNasin, 2.5% glycerol, 3 nM NS5B, 20 nM polyC RNA template, 20 nM biotin-oligoG13 primer, and 0.2 μM tritiated guanosine triphosphate. Test compounds were initially dissolved and diluted in 100% DMSO and further diluted into aqueous buffer, producing a final concentration of 5% DMSO. Typically, compounds were tested at concentrations between 0.2 nM and 10 μM. Reactions were started with addition of tritiated guanosine triphosphate and allowed to continue at 30° C. for 2 hours. Reactions were quenched with 100 μL stop buffer containing 10 mM EDTA and 1 μg/mL streptavidin-coated scintillation proximity beads. Reaction plates were incubated at 4° C. for 10 hours and then incorporation of radioactivity was determined by scintillation counting. The table below lists the IC50 values of compounds determined using this procedure.

SMILES | IC50 [nM]
O=C(O)c1ccc2c(C3CCCCC3)c3n(c2c1)CCN1CCC(NC2CCCC2)c2cccc-3c21 (racemic) [Compound 280] | 2.18
NCCC1CCN2CCn3c(c(C4CCCCC4)c4ccc(C(=O)O)cc43)-c3cccc1c32 (single isomer, unassigned) [Compound 302, 4-(2-Aminoethyl)-15-cyclohexyl-5,6,8,9-tetrahydro-4H-indolo[1′,2′:4,5][1,4]diazepino[6,7,1-ij]quinoline-12-carboxylic acid] | 2.68

Results, then the molecule that gave them:

IC50 [nM] | SMILES
3 | O=C(O)c1ccc2c(C3CCCCC3)c3n(c2c1)CCCn1cc(N2CCCCC2)c2cccc-3c21 [Compound 261]
9 | CC1(C)C(=O)N2CCCn3c(c(C4CCCCC4)c4ccc(C(=O)O)cc43)-c3cccc1c32 [Compound 265, 12-cyclohexyl-1,1-dimethyl-2-oxo-1,2,5,6-tetrahydro-4H-[1,5]diazocino[1,2-a:5,4,3-h′i′]diindole-9-carboxylic acid]
11 | CCC1(CC)C(=O)N2CCCn3c(c(C4CCCCC4)c4ccc(C(=O)O)cc43)-c3cccc1c32 [Compound 266, 12-cyclohexyl-1,1-diethyl-2-oxo-1,2,5,6-tetrahydro-4H-[1,5]diazocino[1,2-a:5,4,3-h′i′]diindole-9-carboxylic acid]
